According to patent US10363251B2, “(+)-morphinans as antagonists of toll-like receptor 9 and therapeutic uses thereof” (Mallinckrodt LLC, priority 2009, dated 2019):

Biological target: T1, TLR9 (Homo sapiens, UniProt Q9NR96)
T1 construct: expressed in transfected cells; host or cells: HEK293
T1 sequence (Q9NR96 26-1032): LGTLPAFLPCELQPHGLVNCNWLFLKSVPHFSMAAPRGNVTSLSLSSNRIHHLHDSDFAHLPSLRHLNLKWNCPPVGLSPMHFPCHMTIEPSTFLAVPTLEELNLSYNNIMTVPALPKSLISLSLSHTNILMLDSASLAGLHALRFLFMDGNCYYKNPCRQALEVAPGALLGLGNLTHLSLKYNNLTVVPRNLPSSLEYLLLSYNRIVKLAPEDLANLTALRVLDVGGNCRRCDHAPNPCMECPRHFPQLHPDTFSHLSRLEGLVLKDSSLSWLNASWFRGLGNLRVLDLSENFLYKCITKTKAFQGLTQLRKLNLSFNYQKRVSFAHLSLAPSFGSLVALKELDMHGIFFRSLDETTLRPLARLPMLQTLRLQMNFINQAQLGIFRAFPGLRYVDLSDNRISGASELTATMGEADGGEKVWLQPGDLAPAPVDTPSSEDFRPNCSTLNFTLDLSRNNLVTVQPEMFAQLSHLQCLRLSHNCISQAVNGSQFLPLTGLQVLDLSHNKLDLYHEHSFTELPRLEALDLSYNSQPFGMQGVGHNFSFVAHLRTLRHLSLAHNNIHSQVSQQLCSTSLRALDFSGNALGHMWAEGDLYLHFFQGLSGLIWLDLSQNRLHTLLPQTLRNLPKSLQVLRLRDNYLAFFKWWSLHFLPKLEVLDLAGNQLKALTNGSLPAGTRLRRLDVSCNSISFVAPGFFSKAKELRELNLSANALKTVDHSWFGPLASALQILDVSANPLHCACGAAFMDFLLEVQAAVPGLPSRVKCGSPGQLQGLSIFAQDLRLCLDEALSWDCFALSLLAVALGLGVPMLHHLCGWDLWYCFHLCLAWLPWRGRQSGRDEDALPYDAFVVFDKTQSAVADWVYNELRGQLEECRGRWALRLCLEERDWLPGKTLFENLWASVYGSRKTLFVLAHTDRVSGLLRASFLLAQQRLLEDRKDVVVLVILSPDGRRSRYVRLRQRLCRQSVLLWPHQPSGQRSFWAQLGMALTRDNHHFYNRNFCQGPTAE
Assay: TLR9 screening of (+)-morphinan library, SEAP reporter in HEK293 cells expressing TLR9
Format: cell-based
Conditions: activator ODN2006; for OD 650 nm (mean ± sd): control (no activator) 0.14, activator 1.42 OD; for inhibition at 0.1 µM: HEK293, read-out: % Inhibition (mean), 100 nM; for inhibition at 10 µM: HEK293, read-out: % Inhibition (mean), 10 μM
Experimental: The secreted alkaline phosphatase reporter is under the control of a promoter inducible by the transcription factor NF-κB. A library of more than 100 (+)-morphinan compounds was screened for TLR9 antagonist activity by assessing NF-κB activation in the HEK293 cells expressing TLR9. This reporter gene allows the monitoring of signaling through the TLR, based on the activation of NF-κB.
In a 96-well plate (200 μL total volume) containing 50,000 cells/well, 20 μL of each sample compound was added to wells, in triplicate, followed by a 30 minute incubation at 37° C. and 5% CO2. After the 30 minutes of incubation, 20 μL of the activator ODN2006 was added to each well. The media added to the wells was designed for the detection of NF-κB induced SEAP expression. After a 16-20 hr incubation period, the OD at 650 nm was read on a Beckman Coulter AD 340C Absorbance Detector. All compounds were tested at concentrations of 10 μM and 100 nM.

Compound | % Inhibition (mean) (100 nM, 0.1 µM) | OD 650 nm (mean ± sd) (100 nM) | % Inhibition (mean) (10 μM) | OD 650 nm (mean ± sd) (10 μM) | inhibition at 0.1 µM | inhibition at 10 µM
COc1ccc2c3c1O[C@@H]1C(O)CC[C@]4(O)[C@H](C2)N(CC2CC2)CC[C@@]314 (single isomer, unassigned) [II-53a] | 14% | 1.22 ± 0.05 OD | 7% | 1.32 ± 0.13 OD |  | 
COc1ccc2c3c1O[C@@H]1C(O)CC[C@]4(O)[C@H](C2)N(CC2CC2)CC[C@@]314 (single isomer, unassigned) [II-53b] | 1% | 1.41 ± 0.09 OD | 29% | 1.00 ± 0.03 OD |  | 
C=CCN1CC[C@@]23c4c5ccc(OC)c4OC2C(OC(C)=O)CC[C@@H]3C1C5 (single isomer, unassigned) [II-94a] |  | 1.13 ± 0.04 OD | 18% | 1.16 ± 0.08 OD | 20% | 
C=CCN1CC[C@@]23c4c5ccc(OC)c4OC2C(OC(C)=O)CC[C@@H]3C1C5 (single isomer, unassigned) [II-94b] | 17% | 1.17 ± 0.03 OD | 8% | 1.30 ± 0.05 OD |  | 
C=CCN1CC[C@@]23c4c5ccc(OC)c4O[C@@H]2[C@H](O)CC[C@]3(O)[C@@H]1C5 (stereo in doubt) [II-48] |  |  |  |  |  | 13%
COc1cc(Br)c2c(c1O)[C@@]13CCNC(C2)C1CCC(=O)C3 (stereo partly drawn) [Compound I-1] |  | 1.18 ± 0.10 OD |  | 0.21 ± 0.01 OD | 17% | 85%
COc1cc(Br)c2c(c1O)[C@@]13CCN(CC4CC4)C(C2)C1CCC(=O)C3 (stereo partly drawn) [Compound I-2] |  | 1.10 ± 0.06 OD |  | 0.14 ± 0.02 OD | 22% | 90%
C=CCN1CC[C@@]23CC(=O)CCC2C1Cc1c(-c2ccoc2)cc(OC)c(O)c13 (stereo partly drawn) [Compound I-3] |  | 1.12 ± 0.01 OD |  | 0.11 ± 0.00 OD | 21% | 92%
COC(=O)CCc1cc(OC)c(O)c2c1CC1C3CCC(=O)C[C@@]23CCN1CC1CC1 (stereo partly drawn) [Compound I-4] |  | 1.17 ± 0.06 OD |  | 0.46 ± 0.05 OD | 18% | 68%
COc1ccc2c(c1O)[C@@]13CCN(CC4CC4)C(C2)C1CCC(=O)C3 (stereo partly drawn) [Compound I-6] |  | 1.29 ± 0.07 OD |  | 0.12 ± 0.02 OD | 9% | 91%
C=CCN1CC[C@@]23CC(=O)CCC2C1Cc1ccc(OC)c(O)c13 (stereo partly drawn) [Compound I-7] |  | 1.14 ± 0.03 OD |  | 0.16 ± 0.01 OD | 20% | 89%
COc1cc(Br)c2c(c1O)[C@@]13CCN(CC4CCC4)C(C2)C1CCC(=O)C3 (stereo partly drawn) [Compound I-8] |  | 1.13 ± 0.07 OD |  | 0.11 ± 0.01 OD | 20% | 92%
COc1ccc2c(c1O)[C@@]13CCN(C)[C@@H](C2)[C@@]1(O)CC(OC)C(=O)C3 (stereo partly drawn) [Compound I-9] |  | 1.50 ± 0.10 OD |  | 1.03 ± 0.01 OD | -6% | 28%
COc1ccc2c(c1O)[C@@]13CCN(C)[C@@H](C2)[C@H]1CC(OC)C(O)C3 (stereo partly drawn) [Compound I-10] |  | 1.32 ± 0.04 OD |  | 1.04 ± 0.08 OD | 7% | 27%
CCOC(=O)N1CC[C@@]23CC(=O)CCC2C1Cc1c(Br)cc(OC)c(O)c13 (stereo partly drawn) [Compound I-11] |  | 1.49 ± 0.04 OD |  | 1.98 ± 0.09 OD | -5% | -39%
COc1cc(Br)c2c(c1OC(C)=O)[C@@]13CCN(CC4CC4)C(C2)C1CCC(=O)C3 (stereo partly drawn) [Compound I-12] |  | 1.19 ± 0.07 OD |  | 0.13 ± 0.01 OD | 16% | 91%
COc1cc(-c2ccoc2)c2c(c1O)[C@@]13CCN(CC4CC4)C(C2)C1CCC(=O)C3 (stereo partly drawn) [Compound I-13] |  | 1.34 ± 0.12 OD |  | 0.13 ± 0.01 OD | 6% | 91%
C=CCN1CC[C@@]23CC(=O)C(OC)C[C@@H]2[C@@H]1Cc1ccc(OC)c(O)c13 (stereo partly drawn) [Compound I-16] |  | 1.50 ± 0.01 OD |  | 0.91 ± 0.04 OD | -5% | 36%
COc1ccc2c(c1O)[C@@]13CCN(CC4CC4)[C@@H](C2)[C@@]1(O)CC(OC)C(=O)C3 (stereo partly drawn) [Compound I-18] |  | 1.40 ± 0.14 OD |  | 1.01 ± 0.06 OD | 1% | 29%
COc1ccc2c(c1O)[C@]13C=CCC[C@]1(O)[C@H](C2)N(C)CC3 [Compound I-22] |  | 0.93 ± 0.15 OD |  | 0.10 ± 0.01 OD | 34% | 93%
COc1ccc2c(c1O)[C@@]13CCN(C)[C@@H](C2)[C@@]1(O)CCC(=O)C3 [Compound I-25] |  | 1.08 ± 0.05 OD |  | 0.52 ± 0.07 OD | 24% | 63%
COc1ccc2c(c1OCc1ccccc1)[C@@]13CCN[C@@H](C2)[C@H]1CC(OC)C(=O)C3 (stereo partly drawn) [Compound I-26] |  | 1.15 ± 0.03 OD |  | 0.19 ± 0.02 OD | 19% | 87%
C=C(C)c1cc(OC)c(O)c2c1CC1C3CCC(=O)C[C@@]23CCN1CC1CC1 (stereo partly drawn) [Compound I-27] |  | 1.13 ± 0.04 OD |  | 0.10 ± 0.00 OD | 20% | 93%
COC1=C[C@@H]2[C@@H]3Cc4ccc(OC)c(O)c4[C@]2(CCN3C)CC1O (stereo partly drawn) [Compound I-28] |  | 1.24 ± 0.02 OD |  | 0.12 ± 0.01 OD | 13% | 91%
COc1ccc2c(c1O)[C@@]13CCN(CC4CCC4)[C@@H](C2)C1CCC(=O)C3 (stereo partly drawn) [Compound I-29] |  | 1.06 ± 0.03 OD |  | 0.11 ± 0.00 OD | 25% | 92%
COC1=C[C@]2(O)[C@@H]3Cc4ccc(OC)c(O)c4[C@]2(CCN3C)CC1=O [Compound I-30] |  | 1.25 ± 0.11 OD |  | 0.94 ± 0.05 OD | 12% | 33%
COc1cc(Br)c2c3c1O[C@@H]1C(=O)CCC4C(C2)NCC[C@]341 (stereo partly drawn) [II-1] |  | 0.97 ± 0.04 OD |  | 0.19 ± −0.2 OD | 32% | 86%
C=CCN1CC[C@@]23c4c5c(-c6ccoc6)cc(OC)c4O[C@@H]2C(=O)CCC3C1C5 (stereo partly drawn) [II-2] |  | 1.23 ± 0.05 OD |  | 0.12 ± 0.01 OD | 13% | 92%
COc1cc(C(C)C)c2c3c1O[C@@H]1C(=O)CCC4C(C2)N(CC2CC2)CC[C@]341 (stereo partly drawn) [II-4] |  | 1.18 ± 0.06 OD |  | 0.11 ± 0.01 OD | 17% | 92%
COc1ccc2c3c1OC1C(O)CC[C@@H]4[C@H](C2)N(C)CC[C@@]314 (stereo partly drawn) [II-7] |  | 1.32 ± 0.08 OD |  | 0.13 ± 0.02 OD | 7% | 91%
